Laboratory results: US11059854B2, “Method for preparing steroid derivative FXR agonist” (Chia Tai Tianqing Pharmaceutical Group Co., Ltd., priority 2017, dated 2021)

What was measured:
[1] = Liver-blood ratio experiment of mice via cassette dosing; assay type: in vivo, C57BL/6J male mice; settings: for Liver concentration 0.5 h / Liver/plasma concentration ratio 0.5 h / Plasma concentration 0.5 h / Liver concentration 3 h / Liver/plasma concentration ratio 3 h / Plasma concentration 3 h: oral cassette 2 mg/kg/compound
Method: Six C57BL/6J male mice were grouped as one oral group. The preparation contained 5 kinds of the developed drugs, and 2 mg/kg/compound was intragastrically administered (the solvent was 0.5% HPMC aqueous solution). The five compounds were firstly dissolved in the solvent, respectively, by ultrasonication or vortex, to form 1 mg/mL solutions (clear solution or suspension), and then the solutions of the five compound were mixed in equal volumes (1:1:1:1:1, v:v:v:v:v) in a glass bottle. After intragastrical oral administration, plasma and liver tissue samples were collected from 3 animals at 0.5 hours after administration; corresponding samples were collected from the other 3 animals at 3 hours after administration. After collection, the liver tissue was homogenized by using ice-cold homogenization buffer (methanol: 15 mM PBS buffer (pH 7.4)=1:2, v:v) according to liver weight: homogenization buffer volume=1:3. Plasma and liver tissue samples were analyzed by using a five-in-one LC-MS/MS analysis method developed in advance. Plasma concentrations and liver tissue homogenate concentrations were obtained, and the concentration ratio of liver tissue to plasma was calculated by using Excel.

[2] = target: T1, glutathione-S-transferase-labeled FXR human protein (Homo sapiens, UniProt Q96RI1); experiment: FXR biochemical experiment (alphascreen, coactivator recruitment); settings: for EC50: alphascreen, GST-FXR human protein with biotin-labeled steroid receptor coactivator, read-out: FXR enzymatic activity EC50; for FXR enzymatic activity Efficacy: highest signal relative to highest signal of the reference compound
T1 construct: purchased Invitrogen
T1 sequence (Q96RI1 1-486): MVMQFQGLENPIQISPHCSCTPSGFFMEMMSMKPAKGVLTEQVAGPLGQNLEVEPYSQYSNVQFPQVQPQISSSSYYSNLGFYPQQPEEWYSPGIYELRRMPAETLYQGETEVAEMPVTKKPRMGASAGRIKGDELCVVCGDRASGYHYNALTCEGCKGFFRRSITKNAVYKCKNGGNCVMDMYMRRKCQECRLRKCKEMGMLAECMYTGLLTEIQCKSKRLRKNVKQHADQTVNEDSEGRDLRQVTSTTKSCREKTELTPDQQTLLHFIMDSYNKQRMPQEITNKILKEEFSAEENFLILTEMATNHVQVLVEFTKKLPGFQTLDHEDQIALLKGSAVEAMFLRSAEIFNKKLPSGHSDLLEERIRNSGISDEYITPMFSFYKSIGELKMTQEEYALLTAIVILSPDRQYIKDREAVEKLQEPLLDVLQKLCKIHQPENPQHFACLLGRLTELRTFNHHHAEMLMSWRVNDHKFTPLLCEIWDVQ
Method: FXR Biochemical Experiment
The activation of compounds on FXR binding reaction was examined by a homogeneous proximity luminescenceamplification test (alphascreen).
Protein: glutathione-S-transferase-labeled FXR human protein (Invitrogen)
Co-activator: Biotin-labeled steroid receptor coactivator (Anaspec)
Detection reagent: homogeneous proximity luminescence amplification test (alphascreen) Detection Kit (PerkinElmer)
Compound dilution: the test compound was prepared as a 40 μM DMSO solution, and then diluted 3-fold to 10 concentration points. The reference compound was prepared as a 400 μM DMSO solution, followed by diluted 1.5-fold to 10 concentration points. The diluted DMSO solution was added to the wells of a 384-well plate in a volume of 150 nL per well.
Glutathione-S-transferase-labeled FXR human protein and biotin-labeled steroid receptor coactivator were formulated as mixed solutions with concentrations of 0.4 nM and 30 nM, respectively, which was added to the wells of the 384-well plate in a volume of 15 per well, and the plate was incubated for 1 hour at room temperature.
The experiment process was carried out with protecting from light. The incubation was performed for 1 hour at room temperature.
The experiment process was carried out by protecting from light. The incubation was performed for 1 hour at room temperature.

[3] = Pharmacokinetics in mice administrated with single compound; assay type: in vivo, C57BL/6J male mice; settings: for drug exposure compared with obeticholic acid / peak concentration compared with obeticholic acid: oral, same dosage (10 mg/kg), in words
Method: Twelve C57BL/6J male mice were randomly divided into two groups, 6 mice in each group. […] Plasma (using K2-EDTA as anticoagulant) samples were taken at 0.083, 0.25, 0.5, 1, 2, 4, 6, 8 and 24 hours after administration for the intravenous group; and plasma samples were taken at 0.25, 0.5, 1, 2, 4, 6, 8 and 24 hours after administration for the oral group. For 6 animals in each group, blood samples were collected for 3 animals at one time point, and the first batch of 3 animals was alternately sampled with the second batch of 3 animals. Plasma sample analysis was performed by using LC-MS/MS. The obtained plasma concentrations were plotted against time, and PK parameters were calculated by using Phoenix WinNonlin 6.3.

[4] = target: T2, FXR (FXR HEK 293T DA cell line) (Homo sapiens, UniProt Q96RI1); experiment: FXR cell experiment (β-lactamase reporter gene); assay type: cell-based
T2 construct: The UAS-driven beta-lactamase is the reporter
T2 sequence (Q96RI1 262-486 limits assumed): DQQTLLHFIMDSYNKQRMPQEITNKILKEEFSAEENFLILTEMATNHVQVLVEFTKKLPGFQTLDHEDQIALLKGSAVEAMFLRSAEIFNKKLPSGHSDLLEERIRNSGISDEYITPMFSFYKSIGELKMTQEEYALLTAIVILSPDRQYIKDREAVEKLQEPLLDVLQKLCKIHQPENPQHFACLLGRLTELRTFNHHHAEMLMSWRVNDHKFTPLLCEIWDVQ
Method: 2. Cell culture medium: DMEM medium supplemented with 10% serum and Penicillin/Streptomycin (1×).
3. Detection reagent: GeneBLAzer® Reporter Gene Detection Kit (Invitrogen)
1. Compound dilution: the test compound was prepared as a 100 μM DMSO solution, and then the compound was diluted 3-fold to 10 concentration points. The reference compound was prepared as a 100 μM DMSO solution, and then diluted 1.3-fold to 10 concentration points. The diluted DMSO solution was added to the wells of a 384-well plate in a volume of 200 nL per well.
3. The 384-well microplate was incubated at 37° C., 5% CO2 for 16 hours.
4. 6 μL of 1 mM LiveBLAzer™-FRET B/G (CCF4-AM) substrate was mixed with 60 μL of B solution and 934 μL of C solution, which was added to the wells of a 384-well plate in a volume of 8 μL per well.
5. The 384-well microplate was incubated in dark for 2 hours at room temperature.
7. Analytical data: the data were analyzed by using Prism 5.0 to calculate the EC50 value of the activation of the compound.

[5] = oral, same dosage (2 mg/kg), 0.5 hours and 3 hours, in words
[6] = male, C57BL/6J, mouse, plasma, oral (intragastric) 10 mg/kg, 0.5% HPMC

| SMILES | Liver concentration 0.5 h [1] [nM] | Liver/plasma concentration ratio 0.5 h [1] | Plasma concentration 0.5 h [1] [nM] | Liver concentration 3 h [1] [nM] | Liver/plasma concentration ratio 3 h [1] | Plasma concentration 3 h [1] [nM] | EC50 [2] [nM] | FXR enzymatic activity Efficacy [2] [%] | drug concentrations in the liver compared with control compound [1, 5] | liver/plasma concentration ratios compared with control compound [1, 5] | AUC [3, 6] [µM·h] | Cmax [3, 6] [nM] | Tmax [3, 6] [min] | drug exposure compared with obeticholic acid [3] | peak concentration compared with obeticholic acid [3] | EC50 ([4]; FXR HEK 293T DA cells, β-lactamase reporter, 16 hours, read-out: FXR cell viability EC50) [nM] | FXR cell viability Efficacy ([4]; highest signal relative to reference compound CDCA) [%] |
| --- | --- | --- | --- | --- | --- | --- | --- | --- | --- | --- | --- | --- | --- | --- | --- | --- | --- |
| CC[C@H]1[C@@H](O)[C@@H]2[C@H](CC[C@]3(C)[C@@H]([C@H](C)CCC(=O)O)CC[C@@H]23)[C@@]2(C)CC[C@@H](O)C[C@@H]12 [Obeticholic acid, obeticholic acid, reference compound] | 711 | 5 | 151 | 625 | 10 | 63 |  |  |  |  |  |  |  |  |  |  |  |
| CC[C@H]1[C@@H](O)[C@@H]2[C@H](CC[C@]3(C)[C@@H]([C@H](C)CCOc4ncc(C(=O)O)cc4F)CC[C@@H]23)[C@@]2(C)CC[C@@H](O)C[C@@H]12 [The compound of formula I-F] |  |  |  |  |  |  | 2.5 | 138 |  |  |  |  |  |  |  |  |  |
| CC[C@H]1[C@@H](O)[C@@H]2[C@H](CC[C@]3(C)[C@@H]([C@H](C)CCOc4ccc(C(=O)O)cn4)CC[C@@H]23)[C@@]2(C)CC[C@@H](O)C[C@@H]12 [The compound of formula I-H] | 1959 | 24 | 83 | 701 | 16 | 45 | 6 | 249 | higher than those of the control compound | higher than those of the control compound | 2.34 | 936 | 30 | higher than that of the control compound obeticholic acid | close to that of the control compound obeticholic acid |  |  |
| CC[C@H]1[C@@H](O)[C@@H]2[C@H](CC[C@]3(C)[C@@H]([C@H](C)CCOc4ncc(C(=O)O)cc4Cl)CC[C@@H]23)[C@@]2(C)CC[C@@H](O)C[C@@H]12 [The compound of formula I-Cl] |  |  |  |  |  |  |  | 248 |  |  |  |  |  | higher than that of the control compound obeticholic acid | higher than that of the control compound obeticholic acid | 3 | 150 |
